Laboratory results reported in patent US12702654B2, “Compositions and methods for treating homocystinuria and other conditions using polyamines” (THE REGENTS OF THE UNIVERSITY OF COLORADO, priority 2020, dated 2026).

How the values were obtained:
HO HCU mice = assay: Hepatic polyamines and MTA by LC-tandem MS in HO HCU mice; assay type: in vivo, mouse
Method: A comparative reference data set was generated for these mice by examining plasma levels of tHcy, methionine, cysteine, serine, glycine, dimethylglycine, methylglycine (MG, SAM and SAH). In brief, determination of plasma levels of amino acids relevant to the methionine cycle were determined using methods similar to those described in Stabler et al., Blood. 81 (1993) 3404-3413, incorporated in its entirety herein. […] The global metabolomic analysis of methionine and folate cycle related metabolites was carried out by Metabolon, Inc. Briefly, sample preparation was performed utilizing the automated MicroLab STAR® system. Sample preparation was performed using a proprietary series of organic and aqueous extractions to remove the protein fraction while allowing maximum recovery of small molecules. The resulting extract was divided into two fractions: one for analysis by liquid chromatography and one for analysis by gas chromatography. Each sample was then frozen and dried under vacuum. The LC/mass spectrometer portion of the platform was based on a Waters ACQUITY UPLC and a Thermo-Finnigan LTQ mass spectrometer, which consisted of an electrospray ionization source and linear ion-trap mass analyzer. Samples were analyzed on a Thermo-Finnigan Trace DSQ fast-scanning single-quadrupole mass spectrometer using electron impact ionization. Identification of known chemical entities was based on comparison to library entries of authenticated standards. Tissue polyamines putrescine, spermidine and spermine and 5-methylthioadenosine (MTA) were determined by liquid chromatography-tandem mass spectrometry using methods similar to those described in Stevens et al., J Chromatogr A 1217 (2010) 3282-3288, incorporated in its entirety herein.

Cbs null mouse = details: betaine treatment; cited from earlier work
[1] = HO HCU mice, one week of betaine treatment

C[N+](C)(C)CC(=O)O [betaine, N,N,N-trimethylglycine]
hepatic levels of putrescine (HO HCU mice; HO HCU mice ± betaine vs WT, n=8 per group, data not shown): no statistical difference | hepatic spermidine (HO HCU mice; [1]): normalized relative to WT mice | hepatic spermine (HO HCU mice; [1]): normalized relative to WT mice | hepatic MTA levels compared to untreated HO HCU mice (HO HCU mice; HO HCU mice, one week of betaine treatment, p<0.001): approximate doubling | Hcy in Cbs (−/−) mice (Cbs null mouse): without significantly lowering Hcy | fertility of female Cbs (−/−) mice (Cbs null mouse): restored fertility | severe liver injury, steatosis, and fibrosis in Cbs (−/−) mice (Cbs null mouse): not significantly improved | survival of Cbs (−/−) mice (Cbs null mouse): improved survival
